Assay results: PubChem BioAssay AID1963871 (Molecular Pharmacology Branch, DTP, NCI, 2024)

Test system: KRAS-mutant PDC multicell tumor spheroid viability
Test: Anticancer human tumor 521955-158-R2-J5-PDC patient-derived pancreatic carcinoma cell line growth inhibition [KRAS2]
Details: for IC50: curve of first compound; for viability, T/C: stronger effect = lower value
Outline: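 KRAS-mutant tumor cells were grown as spheroids with HUVEC endothelial cells and human MSCs as stroma. Targeted agents were tested alone and with KRAS pathway inhibitors. Doses started at or near clinical Cmax, or 10 microM, descending half-log.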

[1] = second compound 0.1 µM, first compound 0.01 µM
[2] = second compound 0.1 µM, first compound 0.0316 µM
[3] = second compound 0.1 µM, first compound 0.1 µM
[4] = second compound 0.1 µM, first compound 0.316 µM
[5] = second compound 0.1 µM, first compound 1 µM
[6] = second compound 0.1 µM, first compound 3.16 µM
[7] = second compound 0.316 µM, first compound 0.01 µM
[8] = second compound 0.316 µM, first compound 0.0316 µM
[9] = second compound 0.316 µM, first compound 0.1 µM
[10] = second compound 0.316 µM, first compound 0.316 µM
[11] = second compound 0.316 µM, first compound 1 µM
[12] = second compound 0.316 µM, first compound 3.16 µM
[13] = second compound 1 µM, first compound 0.01 µM
[14] = second compound 1 µM, first compound 0.0316 µM
[15] = second compound 1 µM, first compound 0.1 µM
[16] = second compound 1 µM, first compound 0.316 µM
[17] = second compound 1 µM, first compound 1 µM
[18] = second compound 1 µM, first compound 3.16 µM
[19] = second compound 3.16 µM, first compound 0.01 µM
[20] = second compound 3.16 µM, first compound 0.0316 µM
[21] = second compound 3.16 µM, first compound 0.1 µM
[22] = second compound 3.16 µM, first compound 0.316 µM
[23] = second compound 3.16 µM, first compound 1 µM
[24] = second compound 3.16 µM, first compound 3.16 µM
[25] = second compound 0.1 µM, first compound 10 µM
[26] = second compound 0.316 µM, first compound 10 µM
[27] = second compound 1 µM, first compound 10 µM
[28] = second compound 3.16 µM, first compound 10 µM
[29] = second compound 10 µM, first compound 0.0316 µM
[30] = second compound 10 µM, first compound 0.1 µM
[31] = second compound 10 µM, first compound 0.316 µM
[32] = second compound 10 µM, first compound 1 µM
[33] = second compound 10 µM, first compound 3.16 µM
[34] = second compound 10 µM, first compound 10 µM
[35] = second compound 10 µM, first compound 0.01 µM
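Further: viability read after seven days of drug exposure.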

SMILES | IC50 (second compound 0.1 µM) | IC50 (second compound 0.316 µM) | IC50 (second compound 1 µM) | IC50 (second compound 3.16 µM) | viability, T/C [2] | viability, T/C [3] | viability, T/C [4] | viability, T/C [5] | viability, T/C [6] | viability, T/C [8] | viability, T/C [9] | viability, T/C [10] | viability, T/C [11] | viability, T/C [12] | viability, T/C [14] | viability, T/C [15] | viability, T/C [16] | viability, T/C [17] | viability, T/C [18] | viability, T/C [20] | also measured
CC1COCCN1c1cc(-c2ccnn2C)c2ccnc(-c3ccn[nH]3)c2n1 (stereo not given) + C=CC(=O)N1CCN(c2nc(OCC3CCCN3C)nc3c2CCN(c2cccc4cccc(C)c24)C3)CC1CC#N | 29.6 nM | 22.9 nM | 17 nM | < 10 nM | 46.4% | 9.45% | 13.1% | 21.9% | 26.9% | 32% | 7.93% | 11.4% | 19.9% | 27.3% | 17.8% | 5.2% | 9.79% | 17.1% | 21.1% | 6.36% | IC50 (second compound 0.0316 µM): 30.6 nM; viability, T/C (second compound 0.0316 µM, first compound 0.01 µM): 95.8%; viability, T/C (second compound 0.0316 µM, first compound 0.0316 µM): 48.6%; viability, T/C (second compound 0.0316 µM, first compound 0.1 µM): 10.9%; viability, T/C (second compound 0.0316 µM, first compound 0.316 µM): 13.4%; viability, T/C (second compound 0.0316 µM, first compound 1 µM): 21.8%; viability, T/C (second compound 0.0316 µM, first compound 3.16 µM): 27.5%; viability, T/C [1]: 109%; viability, T/C [7]: 96%; viability, T/C [13]: 77.8%; viability, T/C [19]: 10.7%; viability, T/C [21]: 4.26%; viability, T/C [22]: 6.86%; viability, T/C [23]: 11%; viability, T/C [24]: 15.3%
O=C(c1cc(Cc2n[nH]c(=O)c3ccccc23)ccc1F)N1CCN(C(=O)C2CC2)CC1 + CC1OCC2(CCN(c3cnc(Sc4ccnc(N)c4Cl)c(N)n3)CC2)C1N | > 10000 nM | < 31.6 nM | > 10000 nM | < 31.6 nM | 67.2% | 71.2% | 57.2% | 55% | 53.3% | 48.7% | 48.6% | 46.8% | 49.1% | 49.8% | 106% | 118% | 92.3% | 83.9% | 74.1% | 30.4% | IC50 (second compound 10 µM): 725 nM; viability, T/C [25]: 58%; viability, T/C [26]: 40.2%; viability, T/C [27]: 56.8%; viability, T/C [21]: 35.5%; viability, T/C [22]: 37.9%; viability, T/C [23]: 35.9%; viability, T/C [24]: 38.6%; viability, T/C [28]: 33.6%; viability, T/C [29]: 43.2%; viability, T/C [30]: 44.3%; viability, T/C [31]: 86.8%; viability, T/C [32]: 46.9%; viability, T/C [33]: 44%; viability, T/C [34]: 39.3%
CC1COCCN1c1cc(-c2ccnn2C)c2ccnc(-c3ccn[nH]3)c2n1 (stereo not given) + CC1OCC2(CCN(c3cnc(Sc4ccnc(N)c4Cl)c(N)n3)CC2)C1N | 18.3 nM | 16.1 nM | 13.2 nM | 13.9 nM | 27.6% | 7.87% | 9.44% | 14.9% | 16.7% | 25.4% | 6.51% | 8.34% | 12.3% | 17.1% | 29% | 7.13% | 7.87% | 11.1% | 17.2% | 25.4% | IC50 (second compound 10 µM): 10.6 nM; viability, T/C [1]: 75%; viability, T/C [7]: 67.2%; viability, T/C [13]: 56.6%; viability, T/C [19]: 59.9%; viability, T/C [21]: 7.05%; viability, T/C [22]: 7.79%; viability, T/C [23]: 10.5%; viability, T/C [24]: 16.8%; viability, T/C [35]: 51.3%; viability, T/C [29]: 27.4%; viability, T/C [30]: 7.9%; viability, T/C [31]: 8.11%; viability, T/C [32]: 11.4%; viability, T/C [33]: 15.6%
COc1cc(Nc2ncc3c(n2)-c2ccc(Cl)cc2C(c2c(F)cccc2OC)=NC3)ccc1C(=O)O + CNCc1ccccc1-c1csc(C(C)Nc2nc(C)nc3cc(OC)c(OC)cc23)c1 | 75.6 nM | < 31.6 nM | < 31.6 nM | < 31.6 nM | 57.5% | 48.2% | 43.6% | 48.2% | 49.2% | 48.4% | 45.4% | 51.4% | 46% | 47.6% | 39.7% | 31.4% | 34.5% | 28.4% | 35.2% | 0.73% | IC50 (second compound 10 µM): < 31.6 nM; viability, T/C [25]: 43.6%; viability, T/C [26]: 39.8%; viability, T/C [27]: 40.9%; viability, T/C [21]: 0.13%; viability, T/C [22]: 1.25%; viability, T/C [23]: 1.11%; viability, T/C [24]: 0.12%; viability, T/C [28]: 1.59%; viability, T/C [29]: 0.28%; viability, T/C [30]: 0.29%; viability, T/C [31]: 0.26%; viability, T/C [32]: 0.51%; viability, T/C [33]: 1.28%; viability, T/C [34]: 0.37%
CC1COCCN1c1cc(-c2ccnn2C)c2ccnc(-c3ccn[nH]3)c2n1 (stereo not given) + CNCc1ccccc1-c1csc(C(C)Nc2nc(C)nc3cc(OC)c(OC)cc23)c1 | 30.5 nM | 23.8 nM | 22.1 nM | < 10 nM | 48.3% | 11.4% | 13.6% | 20.8% | 29.5% | 35% | 12.4% | 11.7% | 20.7% | 25.9% | 25.3% | 8.4% | 11.7% | 21.2% | 22.9% | 0.11% | IC50 (second compound 10 µM): < 10 nM; viability, T/C [1]: 101%; viability, T/C [7]: 95.9%; viability, T/C [13]: 105%; viability, T/C [19]: 0.3%; viability, T/C [21]: 0.07%; viability, T/C [22]: 0.06%; viability, T/C [23]: 0.08%; viability, T/C [24]: 0.33%; viability, T/C [35]: 0.14%; viability, T/C [29]: 0.15%; viability, T/C [30]: 0.13%; viability, T/C [31]: 0.13%; viability, T/C [32]: 0.12%; viability, T/C [33]: 0.22%
O=C(c1cc(Cc2n[nH]c(=O)c3ccccc23)ccc1F)N1CCN(C(=O)C2CC2)CC1 + C=CC(=O)N1CCN(c2nc(=O)n(-c3c(C)ccnc3C(C)C)c3nc(-c4c(O)cccc4F)c(F)cc23)C(C)C1 | > 10000 nM | > 10000 nM | > 10000 nM | > 10000 nM | 115% | 120% | 97.1% | 89.6% | 94.2% | 122% | 110% | 116% | 103% | 93.1% | 122% | 115% | 122% | 103% | 92.9% | 99.1% | IC50 (second compound 10 µM): > 10000 nM; viability, T/C [25]: 64.8%; viability, T/C [26]: 77.7%; viability, T/C [27]: 73.5%; viability, T/C [21]: 109%; viability, T/C [22]: 93.9%; viability, T/C [23]: 102%; viability, T/C [24]: 92.6%; viability, T/C [28]: 68.9%; viability, T/C [29]: 63.5%; viability, T/C [30]: 61.9%; viability, T/C [31]: 65.6%; viability, T/C [32]: 66.2%; viability, T/C [33]: 68.9%; viability, T/C [34]: 43.4%
